Measurements from patent US11427563B2, “Aryl cyclopropyl-amino-isoquinolinyl amide compounds” (Aerie Pharmaceuticals, Inc., priority 2018, dated 2022).

Columns and labels:
ROCK1 enzyme = ROCK1 enzyme (Homo sapiens (Human), UniProt Q13464); test: ROCK kinase inhibition assay (ROCK1); assay type: biochemical; conditions: Table 1
ROCK2 enzyme = ROCK2 enzyme (Homo sapiens (Human), UniProt O75116); test: ROCK kinase inhibition assay (ROCK2); assay type: biochemical; conditions: for IC50: Table 1
IKKβ = IKKβ (Homo sapiens (Human), UniProt O14920); test: IKKβ inhibition; assay type: biochemical; conditions: for IC50: Table 1
JAK3 enzyme = JAK3 enzyme (Homo sapiens (Human), UniProt P52333); test: JAK kinase assay (JAK3); assay type: biochemical; conditions: for IC50: Table 1
TYK2 = TYK2 (Homo sapiens (Human), UniProt P29597); test: TYK2 inhibition; assay type: biochemical; conditions: Table 1
Stat5 = Stat5 assay; assay type: cell-based; conditions: Table 1
[1] = system: Porcine Trabecular Meshwork cells (PTM); test: PTM-HTM assay (actin fiber length in PTM cells); assay type: cell-based; conditions: Sus scrofa; Table 2
Protocol: Porcine Trabecular Meshwork cells (PTM) were isolated from freshly obtained enucleated porcine eyes. Immortalized Human Trabecular Meshwork cells (TM-1) were obtained through a kind gift from Donna Peters in the Department of Ophthalmology and Visual Sciences at the University of Wisconsin. Cells were plated onto fibronectin coated glass-bottom 96-well plates and allowed to attach overnight. Media was removed and replaced with test compound in media with 1% fetal bovine serum and incubated for various times. After incubation, cells were formaldehyde fixed, triton solubilized, and stained. PTM cells were stained with Alexa Fluor®488 phalloidin (F-actin) and Hoechst 33342 (nuclei). TM-1 cells were stained with anti-paxillin followed by Alexa Fluor®488 goat-anti-mouse IgG (focal adhesions) and Hoechst 33342 (nuclei). All staining reagents were obtained through Invitrogen. Images were collected on an INCell 2200 imager with a 20× objective. The actin fiber length and total area of focal adhesions were analyzed using custom algorithms developed in the INCell Developer Toolbox, v1.9.3. Data collected were converted to percent of control (untreated cells). Curves were fit to data in GraphPad Prizm using sigmoidal dose-response and constraining top and bottom to 100% and 0%, respectively.

[2] = Table 2, Ki from IC50 by Cheng-Prusoff

Sequence of ROCK2 enzyme (O75116 whole entry, species assumed): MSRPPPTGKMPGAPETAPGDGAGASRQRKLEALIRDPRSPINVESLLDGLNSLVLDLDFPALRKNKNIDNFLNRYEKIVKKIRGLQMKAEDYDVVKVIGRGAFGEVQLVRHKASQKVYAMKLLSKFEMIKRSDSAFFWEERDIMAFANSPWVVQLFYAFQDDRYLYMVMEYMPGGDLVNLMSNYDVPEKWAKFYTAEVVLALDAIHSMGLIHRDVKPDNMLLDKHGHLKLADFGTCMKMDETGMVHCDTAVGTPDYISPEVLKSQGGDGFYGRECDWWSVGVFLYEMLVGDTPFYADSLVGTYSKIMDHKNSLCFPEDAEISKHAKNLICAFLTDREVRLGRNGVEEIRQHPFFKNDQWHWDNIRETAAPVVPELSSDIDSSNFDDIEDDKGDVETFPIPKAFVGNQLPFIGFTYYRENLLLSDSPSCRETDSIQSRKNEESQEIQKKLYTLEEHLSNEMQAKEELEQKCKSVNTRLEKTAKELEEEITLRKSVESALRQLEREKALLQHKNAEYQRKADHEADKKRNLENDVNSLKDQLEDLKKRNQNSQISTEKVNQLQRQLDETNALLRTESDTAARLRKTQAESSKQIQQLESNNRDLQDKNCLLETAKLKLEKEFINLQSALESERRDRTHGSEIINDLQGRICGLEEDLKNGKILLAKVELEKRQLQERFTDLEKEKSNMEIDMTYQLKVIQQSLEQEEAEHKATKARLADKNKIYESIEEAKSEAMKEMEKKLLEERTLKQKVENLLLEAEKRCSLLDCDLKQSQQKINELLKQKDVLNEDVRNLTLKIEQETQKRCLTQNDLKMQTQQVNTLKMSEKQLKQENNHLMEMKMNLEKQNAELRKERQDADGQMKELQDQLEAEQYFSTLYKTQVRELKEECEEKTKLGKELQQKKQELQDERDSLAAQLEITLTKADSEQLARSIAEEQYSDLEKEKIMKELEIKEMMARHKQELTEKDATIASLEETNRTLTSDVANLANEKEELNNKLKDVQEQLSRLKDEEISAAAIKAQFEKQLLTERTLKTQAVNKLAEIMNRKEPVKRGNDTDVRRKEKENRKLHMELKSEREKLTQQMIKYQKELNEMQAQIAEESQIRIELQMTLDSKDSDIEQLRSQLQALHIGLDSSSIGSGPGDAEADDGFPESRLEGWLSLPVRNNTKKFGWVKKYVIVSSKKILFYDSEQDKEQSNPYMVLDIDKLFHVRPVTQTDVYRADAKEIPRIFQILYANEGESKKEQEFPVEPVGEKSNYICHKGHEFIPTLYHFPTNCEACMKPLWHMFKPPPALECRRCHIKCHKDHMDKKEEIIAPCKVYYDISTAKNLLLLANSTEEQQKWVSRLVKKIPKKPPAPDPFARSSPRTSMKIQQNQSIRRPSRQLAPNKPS
Sequence of TYK2 (P29597 whole entry, species assumed): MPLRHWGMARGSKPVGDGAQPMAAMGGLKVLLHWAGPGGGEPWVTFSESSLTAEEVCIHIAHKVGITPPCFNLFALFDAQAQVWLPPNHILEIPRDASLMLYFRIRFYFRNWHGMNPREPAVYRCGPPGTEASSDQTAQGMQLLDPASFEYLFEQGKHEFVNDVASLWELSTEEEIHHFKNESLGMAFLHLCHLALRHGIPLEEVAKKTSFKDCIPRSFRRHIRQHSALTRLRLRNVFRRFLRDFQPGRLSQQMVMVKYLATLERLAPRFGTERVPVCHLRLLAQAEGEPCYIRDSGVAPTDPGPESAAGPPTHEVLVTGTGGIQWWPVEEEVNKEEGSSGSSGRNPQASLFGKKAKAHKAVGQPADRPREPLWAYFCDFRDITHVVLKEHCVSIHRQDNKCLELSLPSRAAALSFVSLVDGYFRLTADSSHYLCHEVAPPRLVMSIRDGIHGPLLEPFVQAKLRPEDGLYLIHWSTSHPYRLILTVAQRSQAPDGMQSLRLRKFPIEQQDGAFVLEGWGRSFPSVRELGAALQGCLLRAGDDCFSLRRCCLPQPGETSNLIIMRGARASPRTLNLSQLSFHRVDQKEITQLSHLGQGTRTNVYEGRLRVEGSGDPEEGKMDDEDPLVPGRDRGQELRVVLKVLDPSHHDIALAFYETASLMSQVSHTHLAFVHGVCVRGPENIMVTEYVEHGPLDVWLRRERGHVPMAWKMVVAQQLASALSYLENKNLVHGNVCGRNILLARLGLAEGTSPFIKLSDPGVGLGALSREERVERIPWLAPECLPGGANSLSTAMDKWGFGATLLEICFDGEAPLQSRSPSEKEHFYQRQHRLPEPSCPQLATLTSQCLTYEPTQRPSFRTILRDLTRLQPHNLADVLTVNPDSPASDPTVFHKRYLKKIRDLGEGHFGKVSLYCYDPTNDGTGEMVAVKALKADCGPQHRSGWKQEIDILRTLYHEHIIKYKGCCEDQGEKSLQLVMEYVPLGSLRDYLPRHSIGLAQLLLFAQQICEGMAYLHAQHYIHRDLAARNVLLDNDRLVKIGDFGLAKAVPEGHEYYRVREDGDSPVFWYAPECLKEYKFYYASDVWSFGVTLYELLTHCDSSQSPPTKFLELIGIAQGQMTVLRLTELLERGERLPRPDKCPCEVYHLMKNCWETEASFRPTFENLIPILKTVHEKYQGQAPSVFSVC
Sequence of IKKβ (O14920 whole entry, species assumed): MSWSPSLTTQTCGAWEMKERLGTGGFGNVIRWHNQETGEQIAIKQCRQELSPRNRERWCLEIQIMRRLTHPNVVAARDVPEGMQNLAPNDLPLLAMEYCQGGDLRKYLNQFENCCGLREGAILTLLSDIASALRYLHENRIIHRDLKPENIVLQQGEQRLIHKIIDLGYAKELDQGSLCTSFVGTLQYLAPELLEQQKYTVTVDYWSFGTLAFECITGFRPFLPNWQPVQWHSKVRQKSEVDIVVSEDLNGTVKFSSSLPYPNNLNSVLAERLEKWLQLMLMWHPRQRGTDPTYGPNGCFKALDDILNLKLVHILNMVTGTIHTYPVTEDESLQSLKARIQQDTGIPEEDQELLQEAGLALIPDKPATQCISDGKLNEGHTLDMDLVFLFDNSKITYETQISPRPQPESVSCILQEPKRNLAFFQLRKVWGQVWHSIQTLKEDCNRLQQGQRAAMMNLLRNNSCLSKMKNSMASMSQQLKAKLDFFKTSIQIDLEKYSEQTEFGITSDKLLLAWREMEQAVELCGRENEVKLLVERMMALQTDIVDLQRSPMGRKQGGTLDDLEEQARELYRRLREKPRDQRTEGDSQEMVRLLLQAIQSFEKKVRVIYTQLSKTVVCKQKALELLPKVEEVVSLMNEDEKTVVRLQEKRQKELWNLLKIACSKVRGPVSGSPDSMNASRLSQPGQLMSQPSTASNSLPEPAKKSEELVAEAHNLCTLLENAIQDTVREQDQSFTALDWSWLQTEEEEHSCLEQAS
Sequence of ROCK1 enzyme (Q13464 whole entry, species assumed): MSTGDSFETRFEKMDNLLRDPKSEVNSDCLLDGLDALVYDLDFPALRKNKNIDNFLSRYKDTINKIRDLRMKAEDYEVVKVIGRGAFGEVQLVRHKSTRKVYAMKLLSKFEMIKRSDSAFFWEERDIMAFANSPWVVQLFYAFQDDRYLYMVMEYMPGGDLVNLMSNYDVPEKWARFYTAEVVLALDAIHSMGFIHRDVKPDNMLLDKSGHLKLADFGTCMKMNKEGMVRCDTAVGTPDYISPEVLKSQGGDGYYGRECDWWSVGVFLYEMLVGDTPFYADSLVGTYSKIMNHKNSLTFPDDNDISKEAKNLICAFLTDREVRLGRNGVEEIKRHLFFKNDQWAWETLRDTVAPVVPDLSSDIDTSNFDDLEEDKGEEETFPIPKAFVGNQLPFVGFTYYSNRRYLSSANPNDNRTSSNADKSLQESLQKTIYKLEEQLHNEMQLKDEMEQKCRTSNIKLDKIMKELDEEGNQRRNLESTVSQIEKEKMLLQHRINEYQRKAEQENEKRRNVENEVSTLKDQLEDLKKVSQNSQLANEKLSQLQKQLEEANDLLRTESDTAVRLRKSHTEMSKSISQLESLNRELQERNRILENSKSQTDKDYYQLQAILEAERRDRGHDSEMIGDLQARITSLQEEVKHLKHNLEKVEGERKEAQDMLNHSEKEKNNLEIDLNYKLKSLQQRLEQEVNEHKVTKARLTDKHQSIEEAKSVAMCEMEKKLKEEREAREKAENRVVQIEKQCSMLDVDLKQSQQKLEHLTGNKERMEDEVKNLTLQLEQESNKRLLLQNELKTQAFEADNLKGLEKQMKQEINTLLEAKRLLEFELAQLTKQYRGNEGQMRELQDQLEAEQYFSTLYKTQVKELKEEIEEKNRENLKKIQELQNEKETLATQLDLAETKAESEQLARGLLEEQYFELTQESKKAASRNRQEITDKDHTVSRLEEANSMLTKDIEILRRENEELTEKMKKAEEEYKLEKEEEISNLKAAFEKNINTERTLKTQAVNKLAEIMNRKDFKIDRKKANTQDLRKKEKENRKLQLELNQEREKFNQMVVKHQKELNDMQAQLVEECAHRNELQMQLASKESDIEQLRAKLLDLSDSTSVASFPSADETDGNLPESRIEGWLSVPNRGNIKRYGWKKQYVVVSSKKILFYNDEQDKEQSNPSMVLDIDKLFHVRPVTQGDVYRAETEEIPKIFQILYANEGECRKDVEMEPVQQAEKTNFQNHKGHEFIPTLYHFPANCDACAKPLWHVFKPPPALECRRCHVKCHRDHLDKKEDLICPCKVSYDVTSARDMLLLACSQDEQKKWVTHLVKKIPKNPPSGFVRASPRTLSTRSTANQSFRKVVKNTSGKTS

| Structure (SMILES) | IC50 (ROCK1 enzyme) [nM] | IC50 (ROCK2 enzyme) [nM] | IC50 (IKKβ) [nM] | IC50 (JAK3 enzyme) [nM] | IC50 (TYK2) [nM] | IC50 (Stat5) [nM] | IC50 [1] [nM] | Ki (ROCK2 enzyme; [2]) [nM] | Ki (IKKβ; Table 2) [nM] | Ki (JAK3 enzyme; [2]) [nM] |
| --- | --- | --- | --- | --- | --- | --- | --- | --- | --- | --- |
| O=C(Nc1ccc2cncc(Cl)c2c1)[C@@H]1CC1c1ccc(S(=O)(=O)Nc2ccc(F)cn2)cc1 (mixture of isomers) [Compound 16a] | 156 | 56 | 88 | 4.8 | 7 | – | – | – | – | – |
| O=C(Nc1ccc2cncc(Cl)c2c1)[C@@H]1CC1c1ccc(S(=O)(=O)Nc2ccc(F)cn2)cc1 (mixture of isomers) [Compound 16b] | 74 | 25 | 70 | 2.9 | 12 | – | – | – | – | – |
| Cc1cncc2ccc(NC(=O)[C@@H]3C[C@H]3c3ccc(S(=O)(=O)Nc4ncc(C5CCNCC5)cn4)cc3)cc12 [Compound 1] | 16 | 4.9 | 1130 | 148 | – | – | – | – | – | – |
| O=C(Nc1ccc2cncc(Cl)c2c1)[C@@H]1C[C@H]1c1ccc(S(=O)(=O)Nc2ncccn2)cc1 [Compound 6] | 128 | 68 | 4.1 | – | – | – | – | – | – | – |
| CCc1cncc2ccc(NC(=O)[C@@H]3C[C@H]3c3ccc(S(=O)(=O)Nc4ncccn4)cc3)cc12 [Compound 7] | 1090 | 880 | 3.6 | 5.8 | – | – | – | – | – | – |
| Cc1cncc2ccc(NC(=O)[C@@H]3CC3c3ccc(S(=O)(=O)Nc4ncc(F)cn4)cc3)cc12 (stereo partly shown) [Compound 8] | 121 | 93 | 7.3 | 3.9 | – | – | – | – | – | – |
| O=C(Nc1ccc2cncc(C(F)(F)F)c2c1)[C@@H]1CC1c1ccc(S(=O)(=O)Nc2ncccn2)cc1 (stereo partly shown) [Compound 9] | 1570 | 1160 | 14 | 8.2 | – | – | – | – | – | – |
| Cc1cncc2ccc(NC(=O)[C@@H]3CC3c3ccc(S(=O)(=O)Nc4cnccn4)cc3)cc12 (stereo partly shown) [Compound 10] | 220 | 74 | 105 | 14 | – | > 1000 | – | – | – | – |
| Cc1cncc2ccc(NC(=O)[C@@H]3C[C@H]3c3ccc(S(=O)(=O)Nc4cnccn4)cc3)cc12 [Compound 10] | – | – | – | – | 34 | – | – | – | – | – |
| Cc1cncc2ccc(NC(=O)[C@@H]3C[C@H]3c3ccc(S(=O)(=O)Nc4cncc(C5=CCNCC5)n4)cc3)cc12 [Compound 11] | 153 | 15 | 765 | 135 | – | – | – | – | – | – |
| Cc1cncc2ccc(NC(=O)[C@@H]3C[C@H]3c3ccc(S(=O)(=O)NC4CCNC4)cc3)cc12 (stereo partly shown) [Compound 12] | 21 | 21 | 759 | 175 | – | – | – | – | – | – |
| Cc1cncc2ccc(NC(=O)[C@@H]3C[C@H]3c3ccc(S(=O)(=O)NC4CCCNC4)cc3)cc12 (stereo partly shown) [Compound 13] | 18 | 15 | 825 | 179 | – | – | – | – | – | – |
| O=C(Nc1ccc2cncc(C(F)(F)F)c2c1)[C@@H]1C[C@H]1c1ccc(S(=O)(=O)Nc2ccccn2)cc1 [Compound 14] | 122 | 108 | 16 | 9 | – | – | – | – | – | – |
| O=C(Nc1ccc2cncc(Cl)c2c1)[C@@H]1C[C@H]1c1ccc(S(=O)(=O)Nc2ccc(F)cn2)cc1 [Compound 15] | 156 | 56 | 88 | 4.8 | – | – | – | – | – | – |
| CCc1cncc2ccc(NC(=O)[C@@H]3CC3c3ccc(S(=O)(=O)Nc4ccccn4)cc3)cc12 (stereo partly shown) [Compound 17] | 44 | 45 | – | 4.2 | – | – | – | – | – | – |
| O=C(Nc1ccc2cnccc2c1)[C@@H]1CC1c1ccc(S(=O)(=O)Nc2ccccn2)c(F)c1 (stereo partly shown) [Compound 18] | 6.4 | 4 | 17.5 | 19.5 | – | – | – | – | – | – |
| O=C(Nc1ccc2cnccc2c1)[C@@H]1CC1c1cc(F)ccc1S(=O)(=O)Nc1ccccn1 (stereo partly shown) [Compound 19] | 7400 | – | – | 6750 | – | – | – | – | – | – |
| N#Cc1cncc2ccc(NC(=O)[C@@H]3CC3c3ccc(S(=O)(=O)Nc4ccccn4)cc3)cc12 (stereo partly shown) [Compound 20] | 30 | 20 | 6.9 | 2.4 | – | – | – | – | – | – |
| Cc1cncc2ccc(NC(=O)[C@@H]3CC3c3ccc(S(=O)(=O)Nc4cccnc4)cc3)cc12 (stereo partly shown) [Compound 27] | – | – | 159 | – | – | – | – | – | – | – |
| Cc1cncc2ccc(NC(=O)[C@@H]3C[C@H]3c3ccc(S(=O)(=O)Nc4cccnc4)cc3)cc12 [Compound 27] | – | 44 | – | 19 | 98 | – | – | – | – | – |
| O=C(Nc1ccc2cncc(Cl)c2c1)[C@@H]1CC1c1ccc(S(=O)(=O)Nc2cccnc2)cc1 (stereo partly shown) [Compound 28] | 160 | 67 | 381 | 18 | 210 | 57 | – | – | – | – |
| O=C(Nc1ccc2cnccc2c1F)[C@@H]1C[C@H]1c1ccc(S(=O)(=O)Nc2cccnc2)cc1 [Compound 29] | 43 | 13.8 | > 5000 | 350 | – | – | – | – | – | – |
| Cc1cncc2ccc(NC(=O)[C@@H]3C[C@H]3c3ccc(S(=O)(=O)Nc4nccs4)cc3)cc12 [Compound 32] | 20 | 12.3 | 5 | 3.4 | – | – | – | – | – | – |
| CN(C)Cc1ccc(NC(=O)c2cccc([C@@H]3C[C@H]3C(=O)Nc3ccc4cncc(Cl)c4c3)c2)nc1 [Compound 36] | – | – | – | – | – | – | 12 | 1 | 1190 | 211 |
| O=C(Nc1cccnn1)c1ccc(C2C[C@H]2C(=O)Nc2ccc3cnccc3c2)cc1 (stereo partly shown) [Compound 175] | – | – | – | – | – | – | 650 | – | – | – |
